Assays:
[1] = biological target: Gamma-aminobutyric acid receptor subunit alpha-1/alpha-2/beta-2/gamma-2 (Homo sapiens, UniProt P14867+P18507+P47869+P47870); assay type: functional, cell-based
[2] = biological target: Sodium channel protein type 5 subunit alpha (Homo sapiens, UniProt Q14524); assay type: functional, cell-based
[3] = biological target: Beta-3 adrenergic receptor (Homo sapiens, UniProt P13945)
[4] = biological target: Voltage-dependent N-type calcium channel subunit alpha-1B (Rattus norvegicus, UniProt Q02294); assay type: functional
[5] = biological target: T1, Corticotropin-releasing factor receptor 1 (Homo sapiens, UniProt P34998)
T1 sequence (P34998 whole entry): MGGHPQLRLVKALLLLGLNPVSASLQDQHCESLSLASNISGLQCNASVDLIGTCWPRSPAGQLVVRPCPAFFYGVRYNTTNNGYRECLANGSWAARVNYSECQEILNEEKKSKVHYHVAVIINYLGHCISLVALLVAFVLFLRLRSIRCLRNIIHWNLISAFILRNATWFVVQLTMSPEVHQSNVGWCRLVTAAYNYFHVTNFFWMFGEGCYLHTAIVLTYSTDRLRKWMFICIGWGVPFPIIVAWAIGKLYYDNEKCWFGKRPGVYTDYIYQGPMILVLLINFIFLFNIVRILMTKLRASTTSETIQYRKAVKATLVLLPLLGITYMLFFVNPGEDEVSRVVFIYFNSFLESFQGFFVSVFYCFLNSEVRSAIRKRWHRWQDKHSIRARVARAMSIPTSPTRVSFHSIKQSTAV

[6] = biological target: T2, Gastric inhibitory polypeptide receptor (Homo sapiens, UniProt P48546)
T2 sequence (P48546 whole entry): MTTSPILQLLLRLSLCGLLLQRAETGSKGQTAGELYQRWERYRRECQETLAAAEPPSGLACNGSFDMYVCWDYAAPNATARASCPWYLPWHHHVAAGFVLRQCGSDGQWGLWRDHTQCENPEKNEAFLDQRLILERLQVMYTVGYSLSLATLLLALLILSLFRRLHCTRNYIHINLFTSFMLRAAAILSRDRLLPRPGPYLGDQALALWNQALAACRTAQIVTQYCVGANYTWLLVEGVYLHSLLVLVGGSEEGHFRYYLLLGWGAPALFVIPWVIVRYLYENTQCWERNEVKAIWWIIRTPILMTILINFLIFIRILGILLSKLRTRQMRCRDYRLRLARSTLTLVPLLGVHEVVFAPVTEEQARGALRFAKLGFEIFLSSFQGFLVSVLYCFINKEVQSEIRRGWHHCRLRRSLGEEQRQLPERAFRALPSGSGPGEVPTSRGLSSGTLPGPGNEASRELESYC

Histamine H2 receptor = Histamine H2 receptor (Homo sapiens, UniProt P25021)
[7] = biological target: Neurotensin receptor type 1 (Homo sapiens, UniProt P30989)
Substance-P receptor = Substance-P receptor (Homo sapiens, UniProt P25103)
[8] = biological target: T3, Alpha-2A adrenergic receptor (Homo sapiens, UniProt P08913)
T3 sequence (P08913 whole entry): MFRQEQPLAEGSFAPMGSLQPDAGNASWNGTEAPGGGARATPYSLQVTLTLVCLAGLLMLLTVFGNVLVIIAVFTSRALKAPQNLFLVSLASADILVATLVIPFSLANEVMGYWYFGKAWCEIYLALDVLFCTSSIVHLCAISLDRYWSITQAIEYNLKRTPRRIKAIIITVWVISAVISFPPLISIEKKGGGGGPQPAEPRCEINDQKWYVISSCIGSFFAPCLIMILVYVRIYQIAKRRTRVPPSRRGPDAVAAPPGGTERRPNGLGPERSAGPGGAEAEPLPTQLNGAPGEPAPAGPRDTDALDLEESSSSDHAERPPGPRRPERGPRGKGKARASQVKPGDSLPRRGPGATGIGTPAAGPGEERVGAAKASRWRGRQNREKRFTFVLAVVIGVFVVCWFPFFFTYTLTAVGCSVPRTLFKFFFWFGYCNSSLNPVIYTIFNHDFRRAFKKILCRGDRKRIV

[9] = biological target: T4, 5-hydroxytryptamine receptor 1A (Homo sapiens, UniProt P08908)
T4 sequence (P08908 whole entry): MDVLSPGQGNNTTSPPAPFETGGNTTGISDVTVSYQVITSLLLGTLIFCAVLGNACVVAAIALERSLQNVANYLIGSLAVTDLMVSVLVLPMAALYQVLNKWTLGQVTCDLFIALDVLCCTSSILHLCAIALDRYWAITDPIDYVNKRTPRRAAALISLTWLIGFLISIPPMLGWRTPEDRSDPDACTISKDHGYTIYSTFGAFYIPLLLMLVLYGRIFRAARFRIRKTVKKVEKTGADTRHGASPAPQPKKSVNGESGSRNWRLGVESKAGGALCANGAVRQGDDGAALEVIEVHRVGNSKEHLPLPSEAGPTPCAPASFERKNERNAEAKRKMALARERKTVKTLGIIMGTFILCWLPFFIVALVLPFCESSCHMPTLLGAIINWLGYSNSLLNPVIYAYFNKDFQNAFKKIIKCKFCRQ

[10] = biological target: T5, Muscarinic acetylcholine receptor M2 (Homo sapiens, UniProt P08172)
T5 sequence (P08172 whole entry): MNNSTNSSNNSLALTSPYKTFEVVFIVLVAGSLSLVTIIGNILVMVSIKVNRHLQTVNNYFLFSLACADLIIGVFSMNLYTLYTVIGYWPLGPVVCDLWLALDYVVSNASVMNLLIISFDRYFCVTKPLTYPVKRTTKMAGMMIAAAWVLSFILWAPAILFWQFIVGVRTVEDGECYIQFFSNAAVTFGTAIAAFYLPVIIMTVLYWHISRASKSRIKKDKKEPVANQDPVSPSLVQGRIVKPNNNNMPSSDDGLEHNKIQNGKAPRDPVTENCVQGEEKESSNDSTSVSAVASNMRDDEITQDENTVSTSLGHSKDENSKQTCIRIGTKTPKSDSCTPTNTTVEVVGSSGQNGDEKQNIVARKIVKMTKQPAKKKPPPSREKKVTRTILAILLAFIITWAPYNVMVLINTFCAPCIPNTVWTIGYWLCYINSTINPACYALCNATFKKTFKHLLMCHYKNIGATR
Also: assay procedure not described here.

Beta-3 adrenergic receptor, sequence (P13945 whole entry): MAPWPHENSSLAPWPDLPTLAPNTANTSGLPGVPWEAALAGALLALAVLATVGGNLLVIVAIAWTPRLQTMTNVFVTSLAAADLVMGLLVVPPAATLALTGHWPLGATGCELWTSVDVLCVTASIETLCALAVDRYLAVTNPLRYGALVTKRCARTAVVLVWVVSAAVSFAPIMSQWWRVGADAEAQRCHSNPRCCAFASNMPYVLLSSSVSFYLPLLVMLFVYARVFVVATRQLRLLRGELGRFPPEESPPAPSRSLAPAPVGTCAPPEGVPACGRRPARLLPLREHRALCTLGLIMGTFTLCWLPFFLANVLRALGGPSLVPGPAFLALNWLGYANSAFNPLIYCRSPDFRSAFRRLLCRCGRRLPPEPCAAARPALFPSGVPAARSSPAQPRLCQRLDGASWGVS
Gamma-aminobutyric acid receptor subunit alpha-1/alpha-2/beta-2/gamma-2, sequence (P14867 whole entry): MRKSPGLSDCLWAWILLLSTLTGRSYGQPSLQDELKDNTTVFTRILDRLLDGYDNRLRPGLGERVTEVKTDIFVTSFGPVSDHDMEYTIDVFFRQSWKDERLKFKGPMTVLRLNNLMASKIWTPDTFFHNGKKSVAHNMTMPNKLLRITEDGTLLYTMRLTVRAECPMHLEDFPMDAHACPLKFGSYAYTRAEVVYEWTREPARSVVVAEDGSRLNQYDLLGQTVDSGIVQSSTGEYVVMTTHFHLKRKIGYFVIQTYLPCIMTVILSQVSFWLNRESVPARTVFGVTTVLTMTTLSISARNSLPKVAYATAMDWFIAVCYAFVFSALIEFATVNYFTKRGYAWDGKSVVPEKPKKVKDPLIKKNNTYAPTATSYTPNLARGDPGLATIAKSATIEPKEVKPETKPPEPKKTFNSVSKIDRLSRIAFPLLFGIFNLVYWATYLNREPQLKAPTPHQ
Gamma-aminobutyric acid receptor subunit alpha-1/alpha-2/beta-2/gamma-2, sequence (P47870 whole entry): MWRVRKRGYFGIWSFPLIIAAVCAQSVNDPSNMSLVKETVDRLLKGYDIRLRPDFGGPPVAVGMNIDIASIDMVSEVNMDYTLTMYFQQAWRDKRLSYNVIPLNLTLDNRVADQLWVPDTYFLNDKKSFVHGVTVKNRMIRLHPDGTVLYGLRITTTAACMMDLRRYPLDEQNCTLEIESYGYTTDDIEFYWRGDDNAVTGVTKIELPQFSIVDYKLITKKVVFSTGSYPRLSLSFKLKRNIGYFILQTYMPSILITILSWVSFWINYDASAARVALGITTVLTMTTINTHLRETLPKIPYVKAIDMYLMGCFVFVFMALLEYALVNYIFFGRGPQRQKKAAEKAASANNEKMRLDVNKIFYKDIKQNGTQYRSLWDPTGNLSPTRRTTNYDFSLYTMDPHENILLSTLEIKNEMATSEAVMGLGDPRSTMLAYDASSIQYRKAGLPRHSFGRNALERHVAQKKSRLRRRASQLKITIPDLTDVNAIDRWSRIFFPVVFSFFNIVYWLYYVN
Gamma-aminobutyric acid receptor subunit alpha-1/alpha-2/beta-2/gamma-2, sequence (P18507 whole entry): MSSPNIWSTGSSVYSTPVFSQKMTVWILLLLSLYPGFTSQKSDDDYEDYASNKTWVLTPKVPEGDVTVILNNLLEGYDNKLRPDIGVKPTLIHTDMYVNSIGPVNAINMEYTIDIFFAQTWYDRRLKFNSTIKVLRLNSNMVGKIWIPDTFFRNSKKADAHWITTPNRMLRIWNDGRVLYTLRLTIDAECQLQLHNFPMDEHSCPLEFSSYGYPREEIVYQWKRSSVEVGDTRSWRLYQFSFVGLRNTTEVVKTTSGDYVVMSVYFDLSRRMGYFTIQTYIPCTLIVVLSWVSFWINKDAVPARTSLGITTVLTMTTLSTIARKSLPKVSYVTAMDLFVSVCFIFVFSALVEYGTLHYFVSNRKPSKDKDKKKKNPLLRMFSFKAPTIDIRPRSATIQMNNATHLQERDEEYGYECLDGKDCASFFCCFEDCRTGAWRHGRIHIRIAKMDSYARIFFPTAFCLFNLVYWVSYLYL
Gamma-aminobutyric acid receptor subunit alpha-1/alpha-2/beta-2/gamma-2, sequence (P47869 whole entry): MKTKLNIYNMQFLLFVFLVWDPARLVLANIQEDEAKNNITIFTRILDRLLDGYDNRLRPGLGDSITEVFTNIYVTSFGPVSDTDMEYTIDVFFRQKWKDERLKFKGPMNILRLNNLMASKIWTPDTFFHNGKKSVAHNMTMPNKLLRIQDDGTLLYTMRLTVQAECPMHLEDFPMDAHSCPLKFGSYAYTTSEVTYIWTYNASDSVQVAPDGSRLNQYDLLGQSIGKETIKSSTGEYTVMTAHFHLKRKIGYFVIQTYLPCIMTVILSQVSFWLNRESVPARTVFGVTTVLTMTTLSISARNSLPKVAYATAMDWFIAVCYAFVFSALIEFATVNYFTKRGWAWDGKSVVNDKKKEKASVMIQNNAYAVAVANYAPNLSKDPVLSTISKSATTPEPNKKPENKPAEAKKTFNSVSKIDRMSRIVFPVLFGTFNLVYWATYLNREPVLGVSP
Histamine H2 receptor, sequence (P25021 whole entry): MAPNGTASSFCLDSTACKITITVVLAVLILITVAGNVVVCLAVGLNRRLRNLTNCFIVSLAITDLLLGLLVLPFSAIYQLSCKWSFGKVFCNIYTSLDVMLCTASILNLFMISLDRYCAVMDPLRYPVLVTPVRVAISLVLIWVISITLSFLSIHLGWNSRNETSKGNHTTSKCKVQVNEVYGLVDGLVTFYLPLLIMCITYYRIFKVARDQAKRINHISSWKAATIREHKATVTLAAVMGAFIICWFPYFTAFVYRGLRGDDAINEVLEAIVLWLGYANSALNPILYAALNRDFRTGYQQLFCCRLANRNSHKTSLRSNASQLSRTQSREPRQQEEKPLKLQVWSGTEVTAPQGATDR
Neurotensin receptor type 1, sequence (P30989 whole entry): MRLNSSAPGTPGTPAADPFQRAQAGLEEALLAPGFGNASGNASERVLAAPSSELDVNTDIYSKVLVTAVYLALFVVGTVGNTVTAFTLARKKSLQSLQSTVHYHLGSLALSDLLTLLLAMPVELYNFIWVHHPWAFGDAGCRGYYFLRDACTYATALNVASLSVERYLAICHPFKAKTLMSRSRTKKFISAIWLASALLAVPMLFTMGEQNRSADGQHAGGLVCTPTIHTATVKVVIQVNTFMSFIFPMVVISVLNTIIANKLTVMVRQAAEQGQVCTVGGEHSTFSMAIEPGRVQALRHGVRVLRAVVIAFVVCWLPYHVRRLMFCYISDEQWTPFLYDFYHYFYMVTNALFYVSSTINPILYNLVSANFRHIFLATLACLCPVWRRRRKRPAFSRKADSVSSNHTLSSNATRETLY
Substance-P receptor, sequence (P25103 whole entry): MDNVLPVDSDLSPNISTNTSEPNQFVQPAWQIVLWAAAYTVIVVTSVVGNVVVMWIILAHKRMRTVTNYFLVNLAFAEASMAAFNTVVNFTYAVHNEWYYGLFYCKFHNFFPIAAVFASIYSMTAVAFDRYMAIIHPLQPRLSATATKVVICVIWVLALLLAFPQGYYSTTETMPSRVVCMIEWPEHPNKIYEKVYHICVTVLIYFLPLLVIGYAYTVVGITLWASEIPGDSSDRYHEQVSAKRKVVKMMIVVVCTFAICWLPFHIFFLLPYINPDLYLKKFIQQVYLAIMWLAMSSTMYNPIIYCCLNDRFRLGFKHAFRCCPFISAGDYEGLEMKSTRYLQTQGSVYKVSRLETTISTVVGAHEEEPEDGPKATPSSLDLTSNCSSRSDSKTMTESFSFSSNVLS

Row | Compound | AC50 [1] | AC50 [2] | AC50 [3] | AC50 [4] | AC50 [5] | AC50 [6] | AC50 (Histamine H2 receptor) | AC50 [7] | AC50 (Substance-P receptor) | AC50 [8] | AC50 [9] | AC50 [10]
1 | CO/N=C(\C(=O)N[C@@H]1C(=O)N2C(C(=O)[O-])=C(C[N+]3(C)CCCC3)CS[C@H]12)c1csc(N)n1 | > 2400 µM |  |  |  |  |  |  |  |  |  |  | 
2 | COC(=O)N[C@H](C(=O)N1CCC[C@H]1c1nc(-c2ccc(-c3ccc(-c4c[nH]c([C@@H]5CCCN5C(=O)[C@@H](NC(=O)OC)C(C)C)n4)cc3)cc2)c[nH]1)C(C)C |  | > 30 µM |  |  |  |  |  |  |  |  |  | 
3 | Nc1nc(N)c2nc(-c3ccccc3)c(N)nc2n1 |  |  | > 30 µM | > 10 µM | > 30 µM | > 30 µM | > 10 µM | > 30 µM | > 10 µM | > 10 µM | > 10 µM | > 10 µM
4 | C[C@H]1O[C@H](O[C@H]2[C@H](O)[C@@H](O)[C@@H](O[C@H]3[C@H](O)[C@@H](O)C(O)O[C@@H]3CO)O[C@@H]2CO)[C@H](O)[C@@H](O)[C@@H]1N[C@H]1C=C(CO)[C@@H](O)[C@H](O)[C@H]1O (some centres not stated) [ACARBOSE] |  |  | > 30 µM | > 10 µM | > 30 µM | > 30 µM | > 10 µM | > 30 µM | > 10 µM | > 10 µM | > 10 µM | > 10 µM
5 | CC(=O)c1ccc2c(c1)N(CCCN1CCN(CCO)CC1)c1ccccc1S2 [ACETOPHENAZINE] | > 30 µM |  |  |  |  |  |  |  |  |  |  | 
6 | Oc1ncnc2[nH]ncc12 [ALLOPURINOL] |  |  | > 30 µM | > 10 µM | > 30 µM | > 30 µM | > 10 µM | > 30 µM | > 10 µM | > 10 µM | > 10 µM | > 10 µM
7 | CC(N)Cc1ccccc1 (configuration not stated) [AMPHETAMINE] | > 30 µM |  | > 30 µM | > 10 µM | > 30 µM | > 30 µM |  | > 30 µM |  |  | > 10 µM | > 10 µM
8 | CN1CCCC(n2nc(Cc3ccc(Cl)cc3)c3ccccc3c2=O)CC1 (configuration not stated) [AZELASTINE] | 19 µM |  |  |  |  |  |  |  |  |  |  | 
9 | COc1cc(Nc2c(C#N)cnc3cc(OCCCN4CCN(C)CC4)c(OC)cc23)c(Cl)cc1Cl [BOSUTINIB] |  |  | 16.8 µM | > 10 µM | > 30 µM | > 30 µM |  | > 30 µM | 8 µM | 6.01 µM | > 10 µM | 6.04 µM
10 | N[C@@H](C(=O)N[C@@H]1C(=O)N2C(C(=O)O)=C(Cl)CS[C@H]12)c1ccccc1 [CEFACLOR ANHYDROUS] | > 30 µM |  |  |  |  |  |  |  |  |  |  | 
11 | CN(C)CCCN1c2ccccc2CCc2ccc(Cl)cc21 [CLOMIPRAMINE] |  |  |  | > 10 µM |  |  |  |  |  | > 10 µM | > 10 µM | 
12 | COc1cc2c(cc1OC)C(=O)C(CC1CCN(Cc3ccccc3)CC1)C2 (configuration not stated) [DONEPEZIL] |  |  | > 30 µM |  | > 30 µM | > 30 µM | > 10 µM | > 30 µM | > 10 µM | 10.4 µM |  | 
13 | COC(=O)[C@@H]1CC2=CC(=O)CC[C@]2(C)[C@@]23O[C@@H]2C[C@@]2(C)[C@@H](CC[C@@]24CCC(=O)O4)[C@H]13 [EPLERENONE] | > 30 µM |  | > 30 µM | > 10 µM | > 30 µM | > 30 µM | > 10 µM | > 30 µM |  | > 10 µM | > 10 µM | > 10 µM
14 | NC(N)=Nc1nc(CSCCC(N)=NS(N)(=O)=O)cs1 [FAMOTIDINE] |  |  | > 30 µM | > 10 µM | > 30 µM | > 30 µM | 0.0063 µM | > 30 µM | > 10 µM | > 10 µM | > 10 µM | > 10 µM
15 | NS(=O)(=O)c1cc2c(cc1Cl)NCNS2(=O)=O [HYDROCHLOROTHIAZIDE] |  |  | > 30 µM | > 10 µM | > 30 µM | > 30 µM | > 10 µM | > 30 µM | > 10 µM | > 10 µM | > 10 µM | > 10 µM
16 | CC(C)Cc1ccc(CC(=O)O)cc1 [IBUFENAC] | > 30 µM |  |  |  |  |  |  |  |  |  |  | 
17 | CCN(CC)CCNC(=O)c1cc(Cl)c(N)cc1OC [METOCLOPRAMIDE] |  |  | > 30 µM | > 10 µM | > 30 µM | > 30 µM | > 10 µM | > 30 µM | > 10 µM | 7.32 µM | > 10 µM | 
18 | NC(=O)c1ncn([C@@H]2O[C@H](CO)[C@@H](O)[C@H]2O)c1O [MIZORIBINE] | > 30 µM |  |  |  |  |  |  |  |  |  |  | 
19 | CCc1nn(CCCN2CCN(c3cccc(Cl)c3)CC2)c(=O)n1CCOc1ccccc1 [NEFAZODONE] |  |  | 9.5 µM | > 10 µM | > 30 µM | > 30 µM |  | > 30 µM | 2.45 µM |  | 0.254 µM | 
20 | COC(=O)C1=C(C)NC(C)=C(C(=O)OCC(C)C)C1c1ccccc1[N+](=O)[O-] (configuration not stated) [NISOLDIPINE] |  | 8.6 µM |  |  |  |  |  |  |  |  |  | 
21 | OCCN1CCN(CCCN2c3ccccc3C=Cc3ccccc32)CC1 [OPIPRAMOL] | > 30 µM |  |  |  |  |  |  |  |  |  |  | 
22 | NC1=NC(=O)C(c2ccccc2)O1 (configuration not stated) [PEMOLINE] |  |  |  |  |  |  |  |  |  |  | > 10 µM | 
23 | CCc1ccc(CCOc2ccc(CC3SC(=O)NC3=O)cc2)nc1 (configuration not stated) [PIOGLITAZONE] |  |  | > 30 µM | > 10 µM | > 30 µM | > 30 µM | > 10 µM | > 30 µM | > 10 µM | 7.05 µM | > 10 µM | 
24 | CC(C(=O)O)c1ccc(N2CC=CC2)c(Cl)c1 (configuration not stated) [PIRPROFEN] |  |  | > 30 µM | > 10 µM | > 30 µM | > 30 µM | > 10 µM | > 30 µM | > 10 µM | > 10 µM | > 10 µM | > 10 µM
25 | NC(=O)c1cnccn1 [PYRAZINAMIDE] |  |  | > 30 µM | > 10 µM | > 30 µM | > 30 µM | > 10 µM | > 30 µM |  | > 10 µM | > 10 µM | 
26 | O=C(CCCCCCC(=O)Nc1ccccc1)NO [VORINOSTAT] | > 30 µM |  |  | > 10 µM |  |  | > 10 µM |  | > 10 µM | > 10 µM | > 10 µM | > 10 µM

From ChEMBL document CHEMBL5291721, “A preclinical secondary pharmacology resource illuminates target-adverse drug reaction associations of marketed drugs” (Nat Commun, 2023)
